How the values were obtained:
[1] = test system: naive rat hind paw; experiment: naive rat hind paw test of mechanical hyperalgesia (Randall and Selitto), glutamate receptor agonists; assay type: in vivo
[2] = test system: DHPG-induced hyperalgesia in the rat hind paw; experiment: DHPG-induced hyperalgesia in the rat hind paw (Randall and Selitto), co-administration; assay type: in vivo; details: co-administration with DHPG to the rat hind paw
[3] = test system: rat; details: intrathecally administered; cited from earlier work

| Compound | rank order of potency as hyperalgesic agents [1] | inhibition of DHPG-induced hyperalgesia [2] | spontaneous nociceptive responses [3] |
| --- | --- | --- | --- |
| NC1(C(=O)O)CCC2C(C(=O)O)C21 (racemic) [LY 314582, (±)-2-aminobicyclo[3.1.0]hexane-2,6-dicarboxylic acid] | (LY 314582)>L-4-phosphono-2-amino-butiric acid (L-AP4) |  |  |
| N[C@H](C(=O)O)c1ccc(C(=O)O)cc1 [(S)-4C-PG, (S)-4-carboxyphenylglycine] |  | limited effect |  |
| Cc1o[nH]c(=O)c1CC(N)C(=O)O (centres unmarked) [AMPA] | AMPA>(±)-2-aminobicyclo[3.1.0]hexane-2,6-dicarboxylic acid (LY 314582) |  |  |
| NC(C(=O)O)c1cc(O)cc(O)c1 (centres unmarked) [DHPG, 3,5-dihydroxyphenyiglycine] | DHPG>NMDA |  | induced an increase in spontaneous nocicepfive responses |
| N[C@@H](CCP(=O)(O)O)C(=O)O [L-AP4, L-4-phosphono-2-amino-butiric acid] | >L-4-phosphono-2-amino-butiric acid (L-AP4) |  |  |
| CN[C@H](CC(=O)O)C(=O)O [NMDA] | NMDA>AMPA |  |  |
| N[C@@H](CCC(=O)O)C(=O)O [glutamate] | glutamate ˜2-chloro-3-hydroxyphenylglycine (CHPG) |  |  |
